This is an account of results in PubChem BioAssay AID743428 (The Scripps Research Institute Molecular Screening Center, 2014).

Usually IC50 stands for the concentration that inhibits the measured activity by half.

Activity calls are given as the source filed them. How the calls were made is not given here.

This assay has as its target Sphingosine 1-phosphate receptor 2 (Homo sapiens) (UniProt O95136). In words: antagonism at human S1PR2 – cell-based, FRET, dose response, counter-screen for S1PR3 antagonist project, late-stage follow-up (AID 743428). The note with it: S1P2-expressing cells, FRET reporter, antagonist counterscreen. (In general: Counterscreens check selectivity or assay interference.)

Sequence of Sphingosine 1-phosphate receptor 2 (Homo sapiens) (O95136 whole entry, looked up): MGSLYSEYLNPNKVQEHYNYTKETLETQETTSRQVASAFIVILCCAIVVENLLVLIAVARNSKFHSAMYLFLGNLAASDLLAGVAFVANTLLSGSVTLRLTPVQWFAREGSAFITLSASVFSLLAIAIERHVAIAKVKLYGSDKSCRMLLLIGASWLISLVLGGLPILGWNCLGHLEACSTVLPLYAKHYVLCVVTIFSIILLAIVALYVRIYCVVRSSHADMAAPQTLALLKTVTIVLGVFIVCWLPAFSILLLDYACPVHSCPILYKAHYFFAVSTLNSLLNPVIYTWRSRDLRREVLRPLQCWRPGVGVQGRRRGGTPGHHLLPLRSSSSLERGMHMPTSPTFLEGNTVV

As to `O=C(NC(c1cccc(Cl)c1)c1nc(-c2ccccc2)no1)c1cc(Cl)cc(Cl)c1` (configuration not stated), the IC50 is > 50 µM (inactive).

In the case of `O=C(c1cccc(Cl)c1)N(CCO)C(c1ccc(Cl)c(Cl)c1)c1nc(-c2ccccc2)no1` (configuration not stated), the IC50 result is “inactive”.

Turning to `O=C(NC(c1ccccc1)c1nc(-c2ccccc2)no1)c1cccc(Cl)n1` (configuration not stated), the IC50 was > 50 µM (inactive).

Regarding `O=C(NC(c1ccc(Cl)c(Cl)c1)c1nc(-c2ccccc2)no1)c1ccccc1` (configuration not stated), the IC50 is > 50 µM (inactive).

Regarding `Cc1ccc(C(NC(=O)c2cccc(Cl)c2)c2nc(-c3ccccc3)no2)cc1` (configuration not stated), the IC50 was > 50 µM (inactive).

As to `O=C(NC(c1ccc(Cl)c(Cl)c1)c1nc(-c2ccccc2)no1)c1ccc(Cl)cc1` (configuration not stated), the IC50 is > 50 µM (inactive).

In the case of `O=C(NC(c1ccccc1)c1nc(-c2ccccc2)no1)c1cccc(Cl)c1` (configuration not stated), the IC50 is > 50 µM (inactive).

For `O=C(NC(c1ccc(Br)cc1)c1nc(-c2ccccc2)no1)c1ccc(Cl)c(Cl)c1` (configuration not stated), the IC50 was > 50 µM (inactive).

As for `CCc1ccc(C(NC(=O)c2cccc(Cl)c2)c2nc(-c3ccccc3)no2)cc1` (configuration not stated), the IC50 was > 50 µM (inactive).

With `O=C(NC(c1nc(-c2ccccc2)no1)C1CCOCC1)c1ccc(Cl)c(Cl)c1` (configuration not stated), the IC50 was > 50 µM (inactive).

As to `O=C(NC(c1ccc(Cl)cc1)c1nc(-c2ccccn2)no1)c1cccc(Cl)c1` (configuration not stated), the IC50 is > 50 µM (inactive).

In the case of `O=C(NC(c1ccc(Cl)cc1)c1nc(-c2cccc(Cl)c2)no1)c1cccc(Cl)c1` (configuration not stated), the IC50 was > 50 µM (inactive).

For the compound `O=C(NC(c1ccc(Cl)c(Cl)c1)c1nc(-c2ccccc2)no1)c1cccc(Cl)c1` (configuration not stated), the IC50 was > 50 µM (inactive).

In the case of `O=C(NC(c1ccc(Cl)c(Cl)c1)c1nc(-c2ccccc2)no1)c1ccc(Cl)c(Cl)c1` (configuration not stated), the IC50 is > 50 µM (inactive).

Consider `O=C(NC(c1ccccc1)c1nc(-c2ccccc2)no1)c1cccc(Br)c1` (configuration not stated), for which the IC50 was > 50 µM (inactive).

In the case of `O=C(NC(Cc1ccccc1)c1nc(-c2ccccc2)no1)c1cccc(Cl)c1` (configuration not stated), the IC50 entry was “inactive”.

Regarding `N#Cc1ccc(C(=O)NC(c2ccc(Cl)c(Cl)c2)c2nc(-c3ccccc3)no2)cc1` (configuration not stated), the IC50 is > 50 µM (inactive).

On to `O=C(NC(c1nc(-c2ccccc2)no1)C1CCCCC1)c1ccc(Cl)c(Cl)c1` (configuration not stated), for which the IC50 is > 50 µM (inactive).

Regarding `O=C(NC(c1ccc(Cl)cc1)c1nc(-c2ccccc2)no1)c1ccc(Cl)c(Cl)c1` (configuration not stated), the IC50 is > 50 µM (inactive).

With `COc1ccc(C(=O)NC(c2ccccc2)c2nc(-c3ccccc3)no2)cc1` (configuration not stated), the IC50 is > 50 µM (inactive).

As to `O=C(NC(c1ccccc1)c1nc(-c2ccccc2)no1)c1ccc(Cl)cc1` (configuration not stated), the IC50 is > 50 µM (inactive).

For `O=C(NC(c1cccc(Cl)c1)c1nc(-c2ccccc2)no1)c1ccc(Cl)c(Cl)c1` (configuration not stated), the IC50 was > 50 µM (inactive).

Turning to `O=C(NC(c1ccc(Cl)cc1)c1nc(-c2ccccc2)no1)c1cccc(Cl)c1` (configuration not stated), the IC50 is > 50 µM (inactive).

As for `O=C(NC(c1ccc(Cl)cc1)c1nc(-c2ccccc2)no1)c1cccc(Br)c1` (configuration not stated), the IC50 was > 50 µM (inactive).

With `O=C(NC(c1cccc(Cl)c1)c1nc(-c2ccccc2)no1)c1cccc(Cl)c1` (configuration not stated), the IC50 was > 50 µM (inactive).

As to `Cc1ccc(C(=O)NC(c2ccccc2)c2nc(-c3ccccc3)no2)cc1` (configuration not stated), the IC50 was > 50 µM (inactive).

In the case of `O=C(NC(c1ccc(Cl)cc1)c1nc(-c2ccccc2)no1)c1ccc(Cl)c(Br)c1` (configuration not stated), the IC50 is > 50 µM (inactive).
